# Reference: patent US5134150A, “Inhibition of the 5-lipoxygenase pathway” (priority 1989, dated 1992)
# Experiments:
# [1] = tested on: LTB4 synthesis by peritoneal exudate cells; experiment: Ex vivo production of LTB4 from peritoneal exudate cells of drug-treated mice; type: in vivo, mouse; conditions: for inhibition at 200 mg/kg: Mus musculus, po, 200 mg/kg p.o.
# Description: In the following Examples where mice were used, they were male Balb/c mice (20-28 g), and where rats were used, they were male Lewis rats (180-210 g). All mice and rats were obtained from Charles River Breeding Laboratories, Kingston, N.Y. Within a single experiment, mice and rats were sex and age matched. Auranofin, phenidone, indomethacin, naproxen, and ibuprofen were each used as the free base. The compounds of Formula (I) were used either as the free base or in the appropriate salt form. Levamisole was used as the hydrochloride salt. […] Nordihydroguaiaretic acid (NDGA) was solubilized in dimethylacetamide and diluted with olive oil for subcutaneous administration. Carrageenan-induced peritoneal exudate cells from normal or drug-treated mice were washed and suspended in 2.2 ml of phosphate buffered saline. […] The cell preparation was centrifuged at 1500 rpm for 10 min and the supernatant was extracted using a C-18 silica column. […] A tetrahydrofuran, methanol, water, acetic acid (25:30:45: 0.1) solvent system, adjusted to pH 5.5 with ammonium hydroxide, was used at a flow rate of 0.7 ml/min. Cell derived LTB4 was quantified utilizing standard curves constructed with known amounts of synthetic LTB4.
# [2] = tested on: Infiltration of Polymorphonuclear Leukocytes into Sites of Carrageenan-Induced Inflammation; experiment: Mouse carrageenan peritonitis (PMN infiltration); type: in vivo, mouse (male Balb/c); conditions: carrageenan peritonitis, mice
# Description: (§1) In the following Examples where mice were used, they were male Balb/c mice (20-28 g), and where rats were used, they were male Lewis rats (180-210 g). All mice and rats were obtained from Charles River Breeding Laboratories, Kingston, N.Y. Within a single experiment, mice and rats were sex and age matched.
# (§2) The compounds of Formula (I) were used either as the free base or in the appropriate salt form. Levamisole was used as the hydrochloride salt. The compounds were homogenized in 0.5% tragacanth. Compounds were administered by gavage at the indicated dose in a final volume of 10 ml/kg. Nordihydroguaiaretic acid (NDGA) was solubilized in dimethylacetamide and diluted with olive oil for subcutaneous administration.
# Mice were pretreated with either the test compound or vehicle one hour before the intraperitoneal injection of a 1.0% carrageenan suspension in saline (0.2 ml/mouse). Mice were sacrificed by cervical dislocation two hours after injection, and 3.0 ml of phosphate buffered saline, without Ca^++ or Mg^++, was injected into the peritoneum. Following massage, a 2.0 ml aliquot of the lavage fluid was removed, and the total cell count determined on a Coulter counter and differential cell count determined by microscopic examination of Giesma-stained slides.
# [3] = tested on: Carrageenan-Induced Cellular Infiltration into the Rat Air Pouch; experiment: Carrageenan-induced air pouch inflammation; type: in vivo, rat (male Lewis)
# Description: as §1, §2
# (§3) Rats were shaved on the dorsal flank, and then injected subcutaneously one day later with 20 ml of air to form a defined pouch, by the method of Sedgwick et al., J. Pathology, 141, 483-495 (1983). The air pouch was reinflated as necessary over the next 6 days. To assay anti-inflammatory activity, animals were treated orally with test compound or vehicle (10 ml/kg) one hour before injection of 2.0 ml of a 2.0% carrageenan suspension containing […] penicillin and 100 µg/ml streptomycin into the air pouch. In other experiments, 5 ml of 0.1% arachidonic acid in 0.2M bicarbonate buffer was injected two hours after drug treatment. Animals were sacrificed using CO2 three hours after instillation of irritant. The exudate was then aspirated from the pouch and neutrophil count and differential cell count were measured.
# Cyclooxygenase = biological target: T1, Cyclooxygenase (Rattus norvegicus, UniProt Q63921); experiment: Cyclooxygenase activity (PGD2) in RBL-1 cell extracts, 10,000 x g supernatant; type: biochemical; conditions: Table 8
# T1 construct: The activities of these enzymes in extracts of RBL-1 cells were assayed; host or cells: RBL-1
# T1 sequence (Q63921 27-602): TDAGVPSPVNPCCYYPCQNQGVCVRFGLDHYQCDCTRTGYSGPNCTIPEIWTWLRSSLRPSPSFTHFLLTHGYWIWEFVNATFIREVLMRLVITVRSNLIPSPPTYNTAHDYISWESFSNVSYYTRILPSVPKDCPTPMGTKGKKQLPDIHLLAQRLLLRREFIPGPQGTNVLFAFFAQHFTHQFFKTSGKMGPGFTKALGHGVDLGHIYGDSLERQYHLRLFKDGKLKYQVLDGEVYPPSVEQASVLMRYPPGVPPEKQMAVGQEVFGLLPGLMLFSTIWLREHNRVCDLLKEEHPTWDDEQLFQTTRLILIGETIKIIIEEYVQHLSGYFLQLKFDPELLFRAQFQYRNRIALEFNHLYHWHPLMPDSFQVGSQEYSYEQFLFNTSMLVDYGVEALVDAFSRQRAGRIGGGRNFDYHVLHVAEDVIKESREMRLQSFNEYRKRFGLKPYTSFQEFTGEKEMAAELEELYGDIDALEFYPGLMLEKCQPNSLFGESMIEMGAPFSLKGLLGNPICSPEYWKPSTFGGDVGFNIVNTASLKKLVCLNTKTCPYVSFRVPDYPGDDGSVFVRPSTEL
# Description: For in vitro experiments, compounds were dissolved at appropriate concentrations in ethanol or DMSO (dimethylsulfoxide) (final concentration≤1.0%) and then diluted to final concentrations using the buffers indicated in the text.
# RBL-1 cells were obtained from the American Type Culture Collection (#CRL 1378) and were grown at 37° C. (5% CO2 in air) in spinner culture in MEM supplemented with 10% heat inactivated fetal calf serum. Harvested cells were washed with 50 mM sodium phosphate buffer, pH 7.0, containing 1 mM EDTA and 0.1% gelatin, resuspended in fresh buffer (5×10^7 cells/ml) and disrupted by nitrogen cavitation using the Parr bomb at 750 psi for 10 min. The broken cell extract was then centrifuged at 10,000× g for 20 minutes (min) and the supernatant centrifuged at 100,000 xIg for 60 min. Aliquots (0.25 mls) of the supernatant were preincubated with or without drugs for 10 min, after which 10 μl CaCl2 (50 mM) was added and the reaction was initiated with 2.5 μl of 2.5 mM arachidonic acid-1-^14 C (final concentration was 25 μM; specific activity 20,000 dpm/nmole). After incubation for 3 min at 37° C., the reaction was terminated by addition of 2 volumes (0.5 ml) ice cold acetone and the sample was allowed to deproteinize on ice for 10 min prior to centrifugation at 1,000× g for 10 min. […] Arachidonic acid, 5-HETE, LTB4 and PGD2 were quantified with a Berthold LB 2832 autoscanner.
# [4] = tested on: Arachidonic Acid-Induced Cellular Infiltration into the Rat Air Pouch; experiment: Arachidonic acid-induced air pouch inflammation; type: in vivo, rat (male Lewis)
# Description: as §1, §2, §3
# [5] = tested on: Arachidonic Acid-Induced Rat Paw Edema; experiment: Arachidonic acid-induced rat paw swelling; type: in vivo, rat (male Lewis)
# Description: as §1
# Auranofin, phenidone, indomethacin, naproxen, and ibuprofen were each used as the free base. The compounds of Formula (I) were used either as the free base or in the appropriate salt form. Levamisole was used as the hydrochloride salt. The compounds were homogenized in 0.5% tragacanth. Compounds were administered by gavage at the indicated dose in a final volume of 10 ml/kg. Nordihydroguaiaretic acid (NDGA) was solubilized in dimethylacetamide and diluted with olive oil for subcutaneous administration.
# After determining pretreatment paw volumes by plethysmography by the method of Webb and Griswold, J. Pharmacol. Methods, 12, 149-153 (1984), rats were given test compound or vehicle one hour prior to the subplantar injection of 0.1 ml of 1 mg/ml arachidonic acid. Paw volumes were then remeasured and compared to pretreatment values and the increase in paw volume was expressed as mean values ± S.D.
compound,measurement,setting,value
O=C1CCN(c2ccccc2)N1 [Phenidone],inhibition at 200 mg/kg,[1]; Experiment 2,21%
same,inhibition at 200 mg/kg,[1]; Experiment 3,33%
same,"LTB4 production ex vivo, result in words","[1]; mouse, in vivo",weaker but inhibition of LTB4 synthesis
same,"PMN infiltration, result in words",[2],effective
same,Cellular Infiltrate MN,[3]; 100 mg/kg,3.5 ± 1.4 Total × 10^-6
same,Cellular Infiltrate PMN,[3]; 100 mg/kg,1.7 ± 0.6 Total × 10^-6
same,Exudate Volume,[3]; 100 mg/kg,1.5 ± 0.8 mL
same,"Cell infiltration into carrageenan air pouch, result in words","[3]; rat, in vivo",reduction in the PMN count and the PMN:mononuclear cell ratio
same,IC50 Cyclooxygenase,Cyclooxygenase,Inactive @ 100
same,Cellular Infiltrate MN,[4]; 100 mg/kg,2.2 ± 1.5 Total × 10^-6
same,Cellular Infiltrate PMN,[4]; 100 mg/kg,1.3 ± 0.8 Total × 10^-6
same,Exudate Volume,[4]; 100 mg/kg,2.8 ± 0.4 mL
same,"Cell infiltration into arachidonic acid air pouch, result in words","[4]; rat, in vivo",significantly reduced PMN and mononuclear cell infiltration
same,Change in Paw Volume,"[5]; 100 mg/kg, 2 hours post arachidonic acid",0.13 ± 0.05 mL
same,"Rat paw inflammatory response, result in words","[5]; rat, in vivo",inhibited significantly
